Reference: US20230192617A1, “AZABICYCLIC(THIO)AMIDES AS FUNGICIDAL COMPOUNDS” (Bayer CropScience Aktiengesellschaft, priority 2020, published 2023)

Key:
[1] = test system: Botrytis cinerea; assay: In vivo preventive test on Botrytis cinerea (grey mould); conditions: 500 ppm of active ingredient, preventive spray on gherkin or cabbage, evaluated 4 to 5 days after inoculation, read-out: efficacy
Summary of the method: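 Preventive spray on cabbage or gherkin seedlings, with compound formulated in DMSO/acetone/Tween 80 and water-diluted, preceded spore inoculation by 24 hours. Cabbage was held 4 to 5 days at 20° C., 100% relative humidity; gherkin 4 to 5 days at 17° C., 90% relative humidity.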

[2] = test system: Pyrenophora teres; assay: In vivo preventive test on Pyrenophora teres (net blotch on barley); conditions: 240 h, 500 ppm of active ingredient, preventive spray on barley, evaluated 10 days after inoculation, read-out: efficacy
Summary of the method: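 Net blotch spores were sprayed onto barley leaves one day after foliar treatment with water-diluted DMSO/acetone/Tween 80 formulations (solvent-only controls). Plants were kept at 20° C: first 48 hours at 100% relative humidity, then 8 days at 70-80%.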

[3] = test system: Colletotrichum lindemuthianum; assay: In vivo preventive test on Colletotrichum lindemuthianum (leaf spot on bean); conditions: 168 h, 500 ppm of active ingredient, preventive spray on bean, evaluated 7 days after inoculation, read-out: efficacy
Summary of the method: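 Young bean plants sprayed with compound in DMSO/acetone/Tween 80 diluted in water; solvent-only controls. Inoculated 24 h later with C. lindemuthianum spore suspension, then kept 24 h at 20 °C/100% RH and 6 days at 20 °C/90% RH.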

[4] = test system: Alternaria alternata; assay: Alternaria alternata in vitro cell test; assay type: cell-based; conditions: 120 h, 20 ppm of active ingredient, liquid culture, 5 days incubation, spectrometric measurement of mycelium growth, read-out: efficacy (inhibition of fungal growth)
Summary of the method: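 Spectrometric readout of mycelial growth after 5-day incubation gauged compound effects on spore germination and growth of A. alternata in liquid medium. Compounds were delivered in DMSO at ≤1% final. Absorbance was compared with untreated controls to give inhibition.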

[5] = test system: Colletotrichum lindemuthianum; assay: B-8. Colletotrichum lindemuthianum in vitro cell test; assay type: cell-based; conditions: 144 h, 20 ppm of active ingredient, 6 days incubation, liquid culture, absorbance, read-out: efficacy (inhibition of fungal growth)
Summary of the method: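 Liquid-culture germination/growth test: compounds in ≤1% final DMSO were added to spore-containing medium. Fungal growth was quantified spectrophotometrically after 6 days of incubation and expressed as inhibition versus untreated controls.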

[6] = test system: Septoria tritici; assay: B-9. Septoria tritici in vitro cell test; assay type: cell-based; conditions: Zymoseptoria tritici, 168 h; 20 ppm of active ingredient; 7 days incubation; liquid culture, absorbance; read-out: efficacy (inhibition of fungal growth)
Summary of the method: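 Compounds from DMSO stocks (final DMSO ≤1%) were added to liquid medium containing S. tritici spores to test inhibition of germination and mycelial growth. After 7 days, mycelium growth was read spectrometrically and inhibition derived from absorbance versus fungicide-free control wells.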

[7] = test system: Pyrenophora teres; assay: B-10. Pyrenophora teres in vitro cell test; assay type: cell-based; conditions: 144 h, 20 ppm of active ingredient, 6 days incubation, liquid culture, absorbance, read-out: efficacy (inhibition of fungal growth)
Summary of the method: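 Liquid-culture assay on a P. teres spore suspension with compounds added to the medium from DMSO solutions, final DMSO ≤1%. Mycelium growth read spectrometrically after 6 days. Inhibition calculated from absorbance against untreated control wells.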

[8] = test system: Botrytis cinerea; assay: B-11. Botrytis cinerea in vitro cell test; assay type: cell-based; conditions: 144 h, 20 ppm of active ingredient, 6 days incubation, liquid culture, absorbance, read-out: efficacy (inhibition of fungal growth)
Summary of the method: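 B. cinerea spores were grown in liquid culture with compound (DMSO ≤1% final). Mycelium growth was measured spectrometrically after 6 days, with inhibition taken as absorbance relative to untreated control wells.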

`Cc1ccc(C(F)CNC(=O)c2c(Oc3cccc(C(F)(F)F)c3)nnc3c2COCC3)c(C)c1` (stereo not shown) [I-123] was tested, and the pest or weed control at 500 ppm [1] was 90 to 100%, the pest or weed control at 500 ppm [2] was 90 to 100% and the pest or weed control at 500 ppm [3] was 90 to 100%. The inhibition at 20 ppm [4] was 90 to 100%, the inhibition at 20 ppm [5] was 90 to 100% and the inhibition at 20 ppm [6] was 90 to 100%. For the same molecule, the inhibition at 20 ppm [7] was 90 to 100% and the inhibition at 20 ppm [8] was 90 to 100%.
For `Cc1ccc(C(F)(F)CNC(=O)c2c(Oc3cccc(Br)c3F)nnc3ccccc23)c(C)c1` [I-227], the pest or weed control at 500 ppm [1] was 90 to 100%, the pest or weed control at 500 ppm [2] was 70 to 79% and the pest or weed control at 500 ppm [3] was 80 to 89%. The inhibition at 20 ppm [4] was 90 to 100%, the inhibition at 20 ppm [5] was 90 to 100% and the inhibition at 20 ppm [6] was 70 to 79%. For the same molecule, the inhibition at 20 ppm [7] was 90 to 100% and the inhibition at 20 ppm [8] was 90 to 100%.
`Cc1ccc(C(F)(F)CNC(=O)c2c(Oc3cccc(C(F)F)c3)nnc3c2CCCC3)c(Cl)c1` [I-243] gave a pest or weed control at 500 ppm [1] of 90 to 100%, a pest or weed control at 500 ppm [2] of 90 to 100% and a pest or weed control at 500 ppm [3] of 90 to 100%. For the same molecule, the inhibition at 20 ppm [4] was 90 to 100%, the inhibition at 20 ppm [5] was 90 to 100% and the inhibition at 20 ppm [6] was 90 to 100%. It also gave an inhibition at 20 ppm [7] of 90 to 100% and an inhibition at 20 ppm [8] of 90 to 100%.
Molecule `Cc1ccc(C(F)(F)CNC(=O)c2c(Oc3cccc(C4CC4)c3F)nnc3c2CCC3)c(Cl)c1` [I-144] has a pest or weed control at 500 ppm [1] of 90 to 100%, a pest or weed control at 500 ppm [2] of 80 to 89% and a pest or weed control at 500 ppm [3] of 90 to 100%. The inhibition at 20 ppm [4] was 90 to 100%, the inhibition at 20 ppm [5] was 90 to 100% and the inhibition at 20 ppm [6] was 80 to 89%. For the same molecule, the inhibition at 20 ppm [7] was 90 to 100% and the inhibition at 20 ppm [8] was 90 to 100%.
`O=C(NC[C@H](F)c1ccc(Cl)cc1Cl)c1c(Oc2cccc(C(F)(F)F)c2)cnc2ccoc12` (racemic) [I-067] showed a pest or weed control at 500 ppm [1] of 90 to 100%, a pest or weed control at 500 ppm [2] of 80 to 89% and a pest or weed control at 500 ppm [3] of 90 to 100%. For the same molecule, the inhibition at 20 ppm [4] was 90 to 100%, the inhibition at 20 ppm [5] was 90 to 100% and the inhibition at 20 ppm [6] was 70 to 79%. For the same molecule, the inhibition at 20 ppm [7] was 90 to 100% and the inhibition at 20 ppm [8] was 90 to 100%.
Molecule `Cc1ccc(C(F)(F)CNC(=O)c2c(Oc3cccc(C4CC4)c3F)nnc3ccccc23)c(C)c1` [I-071, 3-(3-cyclopropyl-2-fluoro-phenoxy)-N-[2-(2,4-dimethyl-phenyl)-2,2-difluoro-ethyl]cinnoline-4-carboxamide] has a pest or weed control at 500 ppm [1] of 90 to 100%, a pest or weed control at 500 ppm [2] of 90 to 100% and a pest or weed control at 500 ppm [3] of 90 to 100%. For the same molecule, the inhibition at 20 ppm [4] was 90 to 100%, the inhibition at 20 ppm [5] was 90 to 100% and the inhibition at 20 ppm [6] was 80 to 89%. For the same molecule, the inhibition at 20 ppm [7] was 90 to 100% and the inhibition at 20 ppm [8] was 90 to 100%.
`Cc1ccc(C(F)(F)CNC(=O)c2c(Oc3cccc(C4CC4)c3F)nnc3c2CCCC3)c(C)c1` [I-131] showed a pest or weed control at 500 ppm [1] of 90 to 100%, a pest or weed control at 500 ppm [2] of 90 to 100% and a pest or weed control at 500 ppm [3] of 90 to 100%. For the same molecule, the inhibition at 20 ppm [4] was 90 to 100%, the inhibition at 20 ppm [5] was 90 to 100% and the inhibition at 20 ppm [6] was 90 to 100%. The inhibition at 20 ppm [7] was 90 to 100% and the inhibition at 20 ppm [8] was 90 to 100%.
Work on `Cc1cc(Cl)ccc1C(F)(F)CNC(=O)c1c(Oc2cccc(Cl)c2F)nnc2c1CCC2` [I-148] yielded a pest or weed control at 500 ppm [1] of 90 to 100%, a pest or weed control at 500 ppm [2] of 90 to 100% and a pest or weed control at 500 ppm [3] of 90 to 100%. For the same molecule, the inhibition at 20 ppm [4] was 90 to 100%, the inhibition at 20 ppm [5] was 80 to 89% and the inhibition at 20 ppm [6] was 80 to 89%. The inhibition at 20 ppm [7] was 90 to 100% and the inhibition at 20 ppm [8] was 90 to 100%.
For `O=C(NCC(F)(F)c1ccc(Cl)cc1Cl)c1c(Oc2cccc(C(F)(F)F)c2)nnc2c1COCC2` [I-228], the pest or weed control at 500 ppm [1] was 90 to 100%, the pest or weed control at 500 ppm [2] was 70 to 79% and the pest or weed control at 500 ppm [3] was 90 to 100%. For the same molecule, the inhibition at 20 ppm [4] was 90 to 100%, the inhibition at 20 ppm [5] was 90 to 100% and the inhibition at 20 ppm [6] was 90 to 100%. For the same molecule, the inhibition at 20 ppm [7] was 90 to 100% and the inhibition at 20 ppm [8] was 90 to 100%.
In the case of `Cc1cc(Br)ccc1C(F)(F)CNC(=O)c1c(Oc2cccc(Cl)c2F)nnc2c1CCCC2` [I-152], the pest or weed control at 500 ppm [1] is reported as 90 to 100%, the pest or weed control at 500 ppm [2] is reported as 80 to 89% and the pest or weed control at 500 ppm [3] is reported as 90 to 100%. The inhibition at 20 ppm [4] was 90 to 100%, the inhibition at 20 ppm [5] was 90 to 100% and the inhibition at 20 ppm [6] was 90 to 100%. The inhibition at 20 ppm [7] was 90 to 100% and the inhibition at 20 ppm [8] was 90 to 100%.
With `Cc1ccc(C(F)CNC(=O)c2c(Oc3cccc(C4CC4)c3F)nnc3c2CCCC3)c(C)c1` (stereo not shown) [I-137] the pest or weed control at 500 ppm [1] was 90 to 100%, the pest or weed control at 500 ppm [2] was 80 to 89% and the pest or weed control at 500 ppm [3] was 90 to 100%. The inhibition at 20 ppm [4] was 90 to 100%, the inhibition at 20 ppm [5] was 90 to 100% and the inhibition at 20 ppm [6] was 70 to 79%. For the same molecule, the inhibition at 20 ppm [7] was 90 to 100% and the inhibition at 20 ppm [8] was 90 to 100%.
